Data from patent US8686224B2, “Plant defense signal peptides” (priority 2005, dated 2014).
Entries after “also recorded” stand apart in the source; their conditions may differ.

Experiments:
[1] = molecular target: T1, AtPEPR1 (Arabidopsis thaliana, UniProt Q9SSL9); experiment: Medium alkalinization of transgenic tobacco cells expressing AtPEPR1; assay type: cell-based
T1 construct: Tobacco cells were transformed with a CaMV-35S-AtPEPR1 gene; expressed in transfected cells; host or cells: tobacco suspension-cultured cells (Agrobacterium-mediated, CaMV 35S promoter)
T1 sequence (Q9SSL9 29-1123): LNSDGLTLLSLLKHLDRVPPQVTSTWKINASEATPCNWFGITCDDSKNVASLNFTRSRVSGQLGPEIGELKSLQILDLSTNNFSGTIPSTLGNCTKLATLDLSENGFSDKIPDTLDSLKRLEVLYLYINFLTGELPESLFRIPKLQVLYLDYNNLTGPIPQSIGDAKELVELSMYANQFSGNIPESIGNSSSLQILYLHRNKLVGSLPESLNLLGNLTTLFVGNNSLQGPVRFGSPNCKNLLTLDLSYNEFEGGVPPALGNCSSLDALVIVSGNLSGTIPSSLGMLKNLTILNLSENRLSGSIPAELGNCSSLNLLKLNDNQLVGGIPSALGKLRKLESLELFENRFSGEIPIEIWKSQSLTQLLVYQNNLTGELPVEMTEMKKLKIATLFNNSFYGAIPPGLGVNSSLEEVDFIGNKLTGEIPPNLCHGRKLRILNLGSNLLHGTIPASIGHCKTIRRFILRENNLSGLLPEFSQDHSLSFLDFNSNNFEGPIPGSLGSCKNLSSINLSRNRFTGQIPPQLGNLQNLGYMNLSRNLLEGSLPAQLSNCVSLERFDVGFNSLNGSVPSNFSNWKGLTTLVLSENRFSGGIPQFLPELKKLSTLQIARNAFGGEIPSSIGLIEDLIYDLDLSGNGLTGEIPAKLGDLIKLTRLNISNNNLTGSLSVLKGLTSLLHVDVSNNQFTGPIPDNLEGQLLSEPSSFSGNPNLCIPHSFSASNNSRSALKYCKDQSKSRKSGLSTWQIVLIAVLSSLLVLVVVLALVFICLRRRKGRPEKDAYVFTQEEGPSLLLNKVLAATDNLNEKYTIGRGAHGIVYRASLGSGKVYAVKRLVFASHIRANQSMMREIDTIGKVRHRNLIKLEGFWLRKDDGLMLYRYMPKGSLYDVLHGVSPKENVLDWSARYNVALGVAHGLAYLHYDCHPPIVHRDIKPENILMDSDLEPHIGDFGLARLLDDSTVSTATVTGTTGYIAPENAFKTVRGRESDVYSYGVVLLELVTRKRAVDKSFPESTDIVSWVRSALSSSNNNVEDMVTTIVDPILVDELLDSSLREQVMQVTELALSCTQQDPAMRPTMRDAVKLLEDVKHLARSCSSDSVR
Text: Tobacco cells were transformed with a CaMV-35S-AtPEPR1 gene to determine whether the foreign receptor protein was targeted to the cell surface, where, in response to AtPep1, it would activate intracellular signaling to effect the alkalinization of the medium of the transgenic tobacco cells. Expression of the AtPEPR1 gene was confirmed by RT-PCR analysis of RNA from three independently transformed tobacco cell lines. […] AtPep2-7 was also supplied to the transgenic tobacco cells expressing AtPEPR1.
To clarify whether AtPEPR2 binds to AtPep1, the AtPEPR2 coding region was fused to the CaMV 35S promoter and introduced into tobacco suspension-cultured cells by Agrobacterium. Tobacco cells expressing AtPEPR1 and GUS genes were also created as positive and negative controls, respectively. […] These transgenic lines were analyzed for alkalinizing activity as previously described (Pearce et al., Proc. Natl. Acad. Sci. USA 98, 12843-12847, 2001).
The response to all AtPep peptides in transgenic tobacco cells expressing either AtPEPR1 or AtPEPR2 was analyzed by the medium alkalinization assay.

[2] = molecular target: T1, AtPEPR1; experiment: Photoaffinity labeling of transgenic tobacco cells expressing AtPEPR1; assay type: binding; details: 50 nM unlabeled competitor, 0.25 nM label
Protocol: For final confirmation, a photoaffinity-labeling experiment was performed using the transgenic tobacco cells. The transgenic cells were incubated with 0.25 nM ^125I1-azido-Cys-AtPep1 (Yamaguchi et al., Proc. Natl. Acad. Sci. USA 103: 10104-10109, 2006) and irradiated with UV-B to cross-link the AtPep1-binding proteins. After separation of extracted proteins by SDS-PAGE, the labeled proteins were detected on X-ray film. […] Since no specific labeling was detected in wild type tobacco and GUS expressing cells, the proteins labeled specifically by ^125I1-azido-Cys-AtPep1 in AtPEPR1 and AtPEPR2 expressing cells were products from the AtPEPR1 and AtPEPR2 genes.

[3] = system: wild type tobacco suspension-cultured cells; experiment: Medium alkalinization of wild type and GUS expressing tobacco cells; assay type: cell-based; details: wild type tobacco (b358 also GUS expressing) cells
[4] = system: AtproPep1, MPK3 and WRKY gene expression; experiment: Marker gene induction in two-week-old seedlings grown in liquid medium (RT-PCR, qRT-PCR); assay type: in vivo, Arabidopsis thaliana
Protocol: Using AtproPep1 and MPK3 as marker genes, the response to AtPep1 of the T-DNA insertional mutants was analyzed. […] […]1 and […]2 mutants are unable to respond to AtPEP1. To further examine the importance of […]1 and […]2 in AtPep1 signaling, the expression level of WRKY transcription factor genes, WRKY22, WRKY29, WRKY33. WRKY53 and WRKY55, were monitored by qRT-PCR after supplying AtPep1 to wild type Arabidopsis and T-DNA insertional mutants of […]1 and […]2. These WRKY genes were reported to be induced by the fungal PAMP, chitin (Wan et al., Plant Cell 20: 471-481, 2008), and the bacterial PAMPs, […] et al., Cell 125:749-760, 2006). […] In the double mutants, […] […] We also examined the effect of supplying AtPep1 to the double mutants on the expression of the antimicrobial protein genes, defensin (PDF1.2) and pathogenesis related protein (PR-1) […] peptides are known to induced these genes (Huffaker and Ryan, Proc. Natl. Acad. Sci. USA 104: 10732-10736, 2007). Since the expression levels of PDF1.2 and PR-1 gene in Arabidopsis seedlings grown in liquid medium were already high, the method of supplying AtPep1 was changed. Four-week-old Arabidopsis plants grown in soil were sprayed with 1 μM AtPep1 in 0.01% Silwet L-77, and subjected to qRT-PCR analysis after 6 hours.

[5] = system: AtPEPR1 and AtPEPR2 transcripts; experiment: Expression analysis of AtPEPR1 and AtPEPR2 (Northern hybridization, quantitative RT-PCR); assay type: in vivo, Arabidopsis thaliana; details: within 30 min
Protocol: Expression analysis of AtPEPR1 and AtPEPR2. […] In order to elucidate the role of AtPEPR2 in AtPeps signal transduction, the gene expression patterns were analyzed in comparison with AtPEPR1.

[6] = AtPEPR1 expressing tobacco cells

## H-ATKVKAKQRGKEKVSSGRPGQHN-OH [AtPep1]
[1]
  EC50: ~0.25 nM
[1]; [6]
  alkalinization of the medium: strong, reproducible alkalinization; also recorded: caused alkalinization of the media
  maximal change: 1.2 pH units
[2]
  labeling of the 170 kDa protein by 125I1-azido-Cys-AtPep1 with competitor: not in the cells incubated with 50 nM unlabeled AtPep1
[3]
  alkalinization of the medium: no alkalinization was detected; also recorded: did not respond
[4]; 10 nM for 30 min
  response (AtproPep1, MPK3) in double mutants of AtPEPR1 and AtPEPR2: completely lost the response
[4]; 10 nM for 30 min, SALK_036564 and SALK_004447
  response (AtproPep1, MPK3) in AtPEPR2 mutants: did not show the clear reduction
[4]; 10 nM for 30 min, SALK_059281 and SALK_014538
  reduction of AtproPep1 and MPK3 induction in AtPEPR1 mutants: > 50%
[4]; 10 nM, 30 min
  WRKY responses in double mutants pepr1-1/pepr2-1 and pepr1-2/pepr2-2: completely abolished
  lower induction of WRKY genes in pepr1-1 and pepr1-2: 50%
[4]; 10 nM, 30 min, wild type
  induction of WRKY33, WRKY53, WRKY22, WRKY29 and WRKY55: highly induced
[5]
  induction of AtPEPR1 and AtPEPR2 transcripts: strong inducer
